Laboratory results: ChEMBL document CHEMBL1201862, “PubChem BioAssay data set” (2004)
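48-hour exposure; five concentrations; linearly interpolated endpoints. GI50 marks 50% less growth.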 Active and inactive are the calls of the source. Cut-off read from the data, not from the text of the source: active = GI50 up to about 1.1 µM and inactive = higher.

Assays:
Test in all cases: NCI anticancer screen, dose series, 48 h
BT-549 = system: BT-549
EKVX = system: EKVX
HCC 2998 = system: HCC 2998
HCT-15 = system: HCT-15
HL-60 = system: HL-60
HOP-62 = system: HOP-62
HOP-92 = system: HOP-92
Hs-578T = system: Hs-578T
K562 = system: K562
MCF7 = system: MCF7
MDA-MB-231 = system: MDA-MB-231
NCI-H226 = system: NCI-H226
NCI-H522 = system: NCI-H522
NCI/ADR-RES = system: NCI/ADR-RES
OVCAR-5 = system: OVCAR-5
SF-539 = system: SF-539
SK-MEL-5 = system: SK-MEL-5
SNB-75 = system: SNB-75
SW-620 = system: SW-620
UO-31 = system: UO-31

Compound | GI50 (BT-549) | GI50 (EKVX) | GI50 (HCC 2998) | GI50 (HCT-15) [µM] | GI50 (HL-60) | GI50 (HOP-62) | GI50 (HOP-92) | GI50 (Hs-578T) | GI50 (K562) | GI50 (MCF7) | GI50 (MDA-MB-231) | GI50 (NCI-H226) | GI50 (NCI-H522) | GI50 (NCI/ADR-RES) | GI50 (OVCAR-5) | GI50 (SF-539) | GI50 (SK-MEL-5) | GI50 (SNB-75) | GI50 (SW-620) | GI50 (UO-31)
COc1cc(C(c2cc3c(cc2O)OCO3)N2CCCCC2)cc(OC)c1OC (stereo not given) | 12 µM (inactive) | 18.7 µM (inactive) | 22.2 µM (inactive) | 15.9 | 1.76 µM (inactive) | 30 µM (inactive) | 9.25 µM (inactive) | 14 µM (inactive) | 2.63 µM (inactive) | 13.6 µM (inactive) | 15 µM (inactive) | 16.1 µM (inactive) | 11.8 µM (inactive) | 17.5 µM (inactive) | 17.8 µM (inactive) | 17.9 µM (inactive) | 19.1 µM (inactive) | 16.8 µM (inactive) | 4.57 µM (inactive) | 14.8 µM (inactive)
COc1ccc2o/c(=N/c3ccccc3)c(C(N)=O)cc2c1 | 91 µM (inactive) | > 25.5 µM (inactive) | > 100 µM (inactive) | > 100 | > 100 µM (inactive) | 32.2 µM (inactive) | > 50.9 µM (inactive) | 42.9 µM (inactive) | > 100 µM (inactive) | 45.9 µM (inactive) | > 53.3 µM (inactive) | > 85.3 µM (inactive) | > 54.8 µM (inactive) | > 69.8 µM (inactive) | > 100 µM (inactive) | > 75.3 µM (inactive) | > 100 µM (inactive) | 53.7 µM (inactive) | > 100 µM (inactive) | > 36.7 µM (inactive)
CCOc1ccc(-n2c(=O)c3nn4c(=O)n(-c5ccc(OCC)cc5)c(=O)c4nn3c2=O)cc1 | 64.6 µM (inactive) | > 100 µM (inactive) | > 100 µM (inactive) | > 100 | > 100 µM (inactive) | 77.8 µM (inactive) | 30.9 µM (inactive) | 28.5 µM (inactive) | > 100 µM (inactive) | > 100 µM (inactive) | 71.8 µM (inactive) | > 100 µM (inactive) | > 100 µM (inactive) | > 100 µM (inactive) | > 100 µM (inactive) | > 100 µM (inactive) | > 100 µM (inactive) | 20.3 µM (inactive) | > 100 µM (inactive) | > 100 µM (inactive)
[N-]=[N+]=Nc1ccc2c(c1)Sc1ccccc1N2CCCCCl | 41.6 µM (inactive) | 56 µM (inactive) | 61.8 µM (inactive) | 81.3 | 15.3 µM (inactive) | > 100 µM (inactive) | 32.2 µM (inactive) | 35.8 µM (inactive) | 14 µM (inactive) | 14.9 µM (inactive) | > 100 µM (inactive) | 48.9 µM (inactive) | 40.7 µM (inactive) | > 100 µM (inactive) | > 100 µM (inactive) | > 100 µM (inactive) | 14.9 µM (inactive) | > 100 µM (inactive) | 88.3 µM (inactive) | > 100 µM (inactive)
O=C(CC(c1ccccc1)N1CCCCC1)c1ccccc1 (stereo not given) | 18.2 µM (inactive) | 17.7 µM (inactive) | 4.62 µM (inactive) | 14.9 | 12.5 µM (inactive) | 17.7 µM (inactive) | 15 µM (inactive) | 24.8 µM (inactive) | 1.44 µM (inactive) | 2.47 µM (inactive) | 18.9 µM (inactive) | 18.4 µM (inactive) | 12.9 µM (inactive) | 22.5 µM (inactive) | 17.5 µM (inactive) | 19 µM (inactive) | 15.6 µM (inactive) | 16.6 µM (inactive) | 4.06 µM (inactive) | 19.2 µM (inactive)
CC(=O)OCC1OC(n2c(Br)nc3c2c(=O)n(C)c(=O)n3C)C(OC(C)=O)C1OC(C)=O (stereo not given) | 28.8 µM (inactive) | 64.7 µM (inactive) | > 100 µM (inactive) | > 100 | 21.3 µM (inactive) | > 100 µM (inactive) | 83 µM (inactive) | 45.8 µM (inactive) | 53.3 µM (inactive) | 69.8 µM (inactive) | > 100 µM (inactive) | 71.6 µM (inactive) | 45.9 µM (inactive) | > 100 µM (inactive) | > 100 µM (inactive) | 59.2 µM (inactive) | 31.9 µM (inactive) | 85.1 µM (inactive) | 76.9 µM (inactive) | > 100 µM (inactive)
[N-]=[N+]=C(C(=O)OCC#CCOC(=O)C(=[N+]=[N-])S(=O)(=O)c1ccccc1)S(=O)(=O)c1ccccc1 | > 10 µM (inactive) | > 10 µM (inactive) | > 10 µM (inactive) | > 10 | > 10 µM (inactive) | > 10 µM (inactive) | > 10 µM (inactive) | > 10 µM (inactive) | > 10 µM (inactive) | > 10 µM (inactive) | > 10 µM (inactive) | > 10 µM (inactive) | > 10 µM (inactive) | > 10 µM (inactive) | > 10 µM (inactive) | > 10 µM (inactive) | > 10 µM (inactive) | > 10 µM (inactive) | > 10 µM (inactive) | 0.2 µM (active)
N#CS/C(C(Cl)=C(Cl)Cl)=C(/Cl)[N+](=O)[O-] | 2.24 µM (inactive) | 4.46 µM (inactive) | 18.6 µM (inactive) | 2.32 | 0.219 µM (active) | 15.4 µM (inactive) | 2.37 µM (inactive) | 6.1 µM (inactive) | 0.603 µM (active) | 3.9 µM (inactive) | 3.1 µM (inactive) | 7.66 µM (inactive) | 1.04 µM (active) | 3.88 µM (inactive) | 1.7 µM (inactive) | 6.44 µM (inactive) | 2.53 µM (inactive) | 17.4 µM (inactive) | 1.78 µM (inactive) | 1.63 µM (inactive)
CC(O)C1(O)C(O)CC(OC2c3cc4c(c(O)c3[C@@H]3C[C@@]2(C)OC32C=c3cc[nH]c3=N2)C(=O)c2cccc(O)c2C4=O)OC1C (stereo not given in full) | 5.56 µM (inactive) | 1.11 µM (active) | 1.11 µM (active) | 2.03 | 0.598 µM (active) | 1.06 µM (active) | 1.64 µM (inactive) | 1.73 µM (inactive) | 0.935 µM (active) | 0.762 µM (active) | 1.06 µM (active) | 0.701 µM (active) | 0.307 µM (active) | 3.44 µM (inactive) | 3.08 µM (inactive) | 1.19 µM (inactive) | 3.06 µM (inactive) | 1.26 µM (inactive) | 0.809 µM (active) | 1.77 µM (inactive)
Nc1nc(Sc2ccc([N+](=O)[O-])cn2)c2nc[nH]c2n1 | 8.45 µM (inactive) | 7.53 µM (inactive) | 12.8 µM (inactive) | 9.55 | 10.7 µM (inactive) | 4.6 µM (inactive) | 3.6 µM (inactive) | 15.3 µM (inactive) | 7.01 µM (inactive) | 5.89 µM (inactive) | 5.9 µM (inactive) | 12.6 µM (inactive) | 12.3 µM (inactive) | 3.78 µM (inactive) | 3.47 µM (inactive) | 6.24 µM (inactive) | 14.4 µM (inactive) | 5.2 µM (inactive) | 18.2 µM (inactive) | 3.99 µM (inactive)
Cc1ccnc2[nH]c3ccccc3c(=O)c12 | 30.1 µM (inactive) | 28.8 µM (inactive) | 19.9 µM (inactive) | 25.5 | 15.1 µM (inactive) | 43.8 µM (inactive) | 41.6 µM (inactive) | 16.3 µM (inactive) | 33.2 µM (inactive) | 21.8 µM (inactive) | 38.8 µM (inactive) | 24.7 µM (inactive) | 15.2 µM (inactive) | 28.6 µM (inactive) | 23.8 µM (inactive) | 17.9 µM (inactive) | 14 µM (inactive) | 16.7 µM (inactive) | 35.9 µM (inactive) | 18 µM (inactive)
C/C(=N\NC(=S)N(C)C)c1ccccn1 | 0.0111 µM (active) | 0.0284 µM (active) | 0.161 µM (active) | < 0.01 | < 0.01 µM (active) | 0.033 µM (active) | 0.498 µM (active) | 3.7 µM (inactive) | < 0.01 µM (active) | < 0.01 µM (active) | < 0.01 µM (active) | 0.148 µM (active) | 0.247 µM (active) | < 0.01 µM (active) | 0.0373 µM (active) | 0.231 µM (active) | 0.178 µM (active) | 0.486 µM (active) | 0.0109 µM (active) | 0.122 µM (active)
Nc1ccc(-c2nc3cc(F)ccc3s2)cc1Cl | 8.15 µM (inactive) | 1.17 µM (inactive) | < 0.01 µM (active) | 0.134 | 3.64 µM (inactive) | 8.36 µM (inactive) | 25.5 µM (inactive) | 27.1 µM (inactive) | 14.8 µM (inactive) | 0.0102 µM (active) | 5.08 µM (inactive) | 0.109 µM (active) | 20.5 µM (inactive) | 48.9 µM (inactive) | 0.0219 µM (active) | 20.2 µM (inactive) | 25.5 µM (inactive) | 20.5 µM (inactive) | > 100 µM (inactive) | 31.8 µM (inactive)
O=C(/C=C/c1ccc(O)c(O)c1)Oc1ccccc1 | 14.9 µM (inactive) | 18.6 µM (inactive) | 18.6 µM (inactive) | 2.74 | 1.61 µM (inactive) | 15.8 µM (inactive) | 14.9 µM (inactive) | 14.2 µM (inactive) | 4.27 µM (inactive) | 12.2 µM (inactive) | 23.1 µM (inactive) | 35.1 µM (inactive) | 0.304 µM (active) | 11.2 µM (inactive) | 28.7 µM (inactive) | 10.6 µM (inactive) | 9.95 µM (inactive) | 13.1 µM (inactive) | 12.6 µM (inactive) | 7.43 µM (inactive)
